A short description of series [1]: Viscosity responsiveness: fluorescence intensity in glycerol versus methanol. It is filed as physicochemical. As to conditions: fluorescence intensity in glycerol to that in methanol. The protocol: The above-mentioned viscosity-responsive fluorescent dye means that the fluorescence intensity of the dye responds to the viscosity of the solution. As the viscosity of the solution increases, the fluorescence intensity increases. Optionally, the viscosity-responsive fluorescent dye is an organic dye molecule which, under the same concentration and excitation wavelength, at 25° C. has a ratio • of the maximum fluorescence emission intensity of the dye in glycerol to the fluorescence intensity in methanol of greater than 2, optionally greater than 5, optionally greater than 10. The concentration of the viscosity-responsive dye ranges from 1×10^−7 M to 1×10^−5 M.

Another series concerns HaloTag protein tag. The series is described as follows: Probe mixed with HaloTag protein tag, fluorescence spectrophotometer (Example 86). Type of series: biochemical. The note with it: 5 μM probe, 10 μM protein tag, 37° C., 1 hour; for Fluorescence enhancement: fluorescence activation multiple after binding protein tag; for Emission/nm: fluorescence emission wavelength. Here is the method: (§1) A probe was mixed with a corresponding HaloTag protein tag to obtain a mixed sample. The final concentration of the probe in the mixed sample was 5 μM and the final concentration of the protein tag was 10 μM. The mixed sample was incubated at 37° C. for 1 hour, and the sample was detected using a fluorescence spectrophotometer.

The nature of series [2]: Quantum yield of free probe not reacted with protein tag. It is filed as physicochemical. The protocol:
as §1

Take `CN(CCOC(=O)NCCOCCOCCCCCCCl)c1ccc(C#C/C=C(\C#N)C(=O)OC(C)(C)C)cc1` [Probe 28]: the ratio in series [1] is 1132. In the series with HaloTag protein tag, the “The quantum yield after binding to Halo-tag” value is reported as 0.41, the Fluorescence enhancement worked out at 551 and the Emission/nm is listed as 566 nm. Also, the “The quantum yield of the free probe” value in series [2] was below 0.001.

As to `CN(CCOC(=O)NCCOCCOCCCCCCCl)c1cc2sc3cc(/C=C(\C#N)C(=O)OC(C)(C)C)sc3c2s1` [Probe 29], the ratio in series [1] was 998. For the same compound, in the series with HaloTag protein tag, the “The quantum yield after binding to Halo-tag” value is on record as 0.53, the Fluorescence enhancement is recorded as 621 and the Emission/nm is listed as 640 nm. Also, the “The quantum yield of the free probe” value in series [2] is below 0.001.

On to `CN(CCOC(=O)NCCOCCOCCCCCCCl)c1cc2sc3cc(/C=C(\C#N)c4nc5ccccc5o4)sc3c2s1` [Probe 30], for which the ratio in series [1] stood at 1125. In the series with HaloTag protein tag, the “The quantum yield after binding to Halo-tag” value amounted to 0.60, the Fluorescence enhancement is 535 and the Emission/nm turned out to be 620 nm. Besides, in series [2], the “The quantum yield of the free probe” value is on record as below 0.001.

In the case of `CN(CCOC(=O)NCCOCCOCCCCCCCl)c1cc2sc3cc(/C=C(\C#N)c4nc5ccccc5s4)sc3c2s1` [Probe 31], the ratio in series [1] came out at 1135. For the same compound, in the series with HaloTag protein tag, the “The quantum yield after binding to Halo-tag” value amounted to 0.41, the Fluorescence enhancement is listed as 875 and the Emission/nm was found to be 660 nm. For the same compound, in series [2], the “The quantum yield of the free probe” value was below 0.001.

For the compound `CN(CCOC(=O)NCCOCCOCCCCCCCl)c1ccc2c(c1)sc1cc(/C=C(\C#N)C(=O)OC(C)(C)C)sc12` [Probe 32], in series [1], the ratio is recorded as 997. In the series on HaloTag protein tag, the “The quantum yield after binding to Halo-tag” value stood at 0.46, the Fluorescence enhancement came to 638 and the Emission/nm was found to be 609 nm. For the same compound, the “The quantum yield of the free probe” value in series [2] was below 0.001.

`CN(CCOC(=O)NCCOCCOCCCCCCCl)c1ccc(-c2ccc(/C=C(\C#N)C(=O)OC(C)(C)C)s2)cc1` [Probe 33]: the ratio in series [1] amounted to 1781. For the same compound, in the series on HaloTag protein tag, the “The quantum yield after binding to Halo-tag” value worked out at 0.47, the Fluorescence enhancement was 957 and the Emission/nm came out at 620 nm. Also, in series [2], the “The quantum yield of the free probe” value is reported as below 0.001.

For the compound `COCCNC(=O)/C(C#N)=C/c1ccc(-c2ccc(N(C)CCOC(=O)NCCOCCOCCCCCCCl)cc2)o1` [Probe 34], the ratio in series [1] is listed as 1774. In the series with HaloTag protein tag, the “The quantum yield after binding to Halo-tag” value stood at 0.32, the Fluorescence enhancement is 857 and the Emission/nm was 615 nm. Moreover, the “The quantum yield of the free probe” value in series [2] is on record as below 0.001.

In the case of `CN(CCOC(=O)NCCOCCOCCCCCCCl)c1ccc(-c2ccc(/C=C(\C#N)C(=O)O)s2)cc1` [Probe 35], the ratio in series [1] is listed as 972. For the same compound, in the series on HaloTag protein tag, the “The quantum yield after binding to Halo-tag” value is given as 0.45, the Fluorescence enhancement was 433 and the Emission/nm is listed as 618 nm. In addition, the “The quantum yield of the free probe” value in series [2] is 0.0012.

In the case of `CN(CCOC(=O)NCCOCCOCCCCCCCl)c1cc2cc3sc(/C=C(\C#N)C(=O)OC(C)(C)C)cc3cc2s1` [Probe 36], the ratio in series [1] is given as 1258. In addition, in the series on HaloTag protein tag, the “The quantum yield after binding to Halo-tag” value is recorded as 0.58, the Fluorescence enhancement turned out to be 488 and the Emission/nm turned out to be 630 nm. The “The quantum yield of the free probe” value in series [2] worked out at 0.001.

As for `CN(CCOC(=O)NCCOCCOCCCCCCCl)c1cc2c(s1)-c1sc(C=C(C#N)C#N)cc1[Si]2(C)C` [Probe 37], in series [1], the ratio worked out at 1135. In addition, in the series with HaloTag protein tag, the “The quantum yield after binding to Halo-tag” value came to 0.56, the Fluorescence enhancement came out at 469 and the Emission/nm is listed as 655 nm. Also, the “The quantum yield of the free probe” value in series [2] turned out to be 0.0012.

For `CN(CCOC(=O)NCCOCCOCCCCCCCl)c1cc2c(s1)-c1sc(/C=C(\C#N)C(=O)OC(C)(C)C)cc1[Si]2(C)C` [Probe 38], the ratio in series [1] amounted to 1011. In the series with HaloTag protein tag, the “The quantum yield after binding to Halo-tag” value is reported as 0.56, the Fluorescence enhancement worked out at 503 and the Emission/nm was 650 nm. Moreover, in series [2], the “The quantum yield of the free probe” value is 0.0011.

Turning to `CN(CCOC(=O)NCCOCCOCCCCCCCl)c1cc2c(s1)-c1sc(/C=C(\C#N)c3nc4ccccc4s3)cc1[Si]2(C)C` [Probe 39], the ratio in series [1] was 892. In addition, in the series on HaloTag protein tag, the “The quantum yield after binding to Halo-tag” value came out at 0.38, the Fluorescence enhancement was 335 and the Emission/nm stood at 700 nm. Also, in series [2], the “The quantum yield of the free probe” value is 0.0016.

In the case of `CN(CCOC(=O)NCCOCCOCCCCCCCl)c1ccc(-c2ccc(/C=C(\C#N)C(=O)OC(C)(C)C)s2)s1` [Probe 40], in series [1], the ratio worked out at 759. In the series with HaloTag protein tag, the “The quantum yield after binding to Halo-tag” value is on record as 0.47, the Fluorescence enhancement is 421 and the Emission/nm is listed as 657 nm. Moreover, the “The quantum yield of the free probe” value in series [2] is given as 0.001.

For `COCCNC(=O)/C(C#N)=C/c1ccc(-c2ccc(N(C)CCOC(=O)NCCOCCOCCCCCCCl)s2)s1` [Probe 41], the ratio in series [1] was determined as 101. In the series with HaloTag protein tag, the “The quantum yield after binding to Halo-tag” value worked out at 0.44, the Fluorescence enhancement was found to be 418 and the Emission/nm is 700 nm. Further, the “The quantum yield of the free probe” value in series [2] was found to be 0.0015.

Turning to `CN(CCOC(=O)NCCOCCOCCCCCCCl)c1ccc(-c2ccc(/C=C(\C#N)c3nc4ccccc4o3)s2)s1` [Probe 42], in series [1], the ratio was found to be 178. Further, in the series with HaloTag protein tag, the “The quantum yield after binding to Halo-tag” value is listed as 0.39, the Fluorescence enhancement is 375 and the Emission/nm stood at 702 nm. For the same compound, the “The quantum yield of the free probe” value in series [2] is reported as 0.0013.

For `CC(C)(C)OC(=O)/C(C#N)=C/c1ccc2c(c1)SCCN2CCOC(=O)NCCOCCOCCCCCCCl` [Probe 44], in series [1], the ratio stood at 1459. For the same compound, in the series with HaloTag protein tag, the “The quantum yield after binding to Halo-tag” value is on record as 0.63, the Fluorescence enhancement came to 1586 and the Emission/nm turned out to be 521 nm. Further, the “The quantum yield of the free probe” value in series [2] is on record as below 0.001.

Take `N#C/C(=C\c1ccc2c(c1)SCCN2CCOC(=O)NCCOCCOCCCCCCCl)c1nc2ccccc2o1` [Probe 45]: the ratio in series [1] amounted to 752. In the series on HaloTag protein tag, the “The quantum yield after binding to Halo-tag” value came out at 0.54, the Fluorescence enhancement is reported as 958 and the Emission/nm was determined as 545 nm. Further, the “The quantum yield of the free probe” value in series [2] is below 0.001.

As for `CC1=CC(C)(C)N(CCOC(=O)NCCOCCOCCCCCCCl)c2ccc(/C=C(\C#N)C(=O)OC(C)(C)C)cc21` [Probe 46], the ratio in series [1] is 682. In the series with HaloTag protein tag, the “The quantum yield after binding to Halo-tag” value is recorded as 0.58, the Fluorescence enhancement is 563 and the Emission/nm was 520 nm. Moreover, in series [2], the “The quantum yield of the free probe” value is reported as below 0.001.

On to `CC1=CC(C)(C)N(CCOC(=O)NCCOCCOCCCCCCCl)c2ccc(/C=C(\C#N)C(=O)O)cc21` [Probe 47], for which the ratio in series [1] is 235. Further, in the series on HaloTag protein tag, the “The quantum yield after binding to Halo-tag” value came out at 0.45, the Fluorescence enhancement amounted to 358 and the Emission/nm is reported as 523 nm. Further, the “The quantum yield of the free probe” value in series [2] is recorded as below 0.001.

On to `CN(CCOC(=O)NCCOCCOCCCCCCCl)c1cc2c(s1)-c1sc(/C=C(\C#N)C(=O)OC(C)(C)C)cc1C2(C)C` [Probe 48], for which, in series [1], the ratio came out at 480. In addition, in the series with HaloTag protein tag, the “The quantum yield after binding to Halo-tag” value amounted to 0.57, the Fluorescence enhancement turned out to be 428 and the Emission/nm stood at 645 nm. The “The quantum yield of the free probe” value in series [2] was below 0.001.

As for `CN(CCOC(=O)NCCOCCOCCCCCCCl)c1cc2c(s1)-c1sc(/C=C(\C#N)c3nc4ccccc4o3)cc1C2(C)C` [Probe 49], in series [1], the ratio is 334. In the series on HaloTag protein tag, the “The quantum yield after binding to Halo-tag” value is given as 0.54, the Fluorescence enhancement worked out at 541 and the Emission/nm is 680 nm. Moreover, in series [2], the “The quantum yield of the free probe” value was below 0.001.

Consider `CN(CCOC(=O)NCCOCCOCCCCCCCl)c1cc2c(s1)-c1sc(/C=C(\C#N)C(=O)O)cc1C2(C)C` [Probe 50], for which, in series [1], the ratio stood at 358. Further, in the series on HaloTag protein tag, the “The quantum yield after binding to Halo-tag” value amounted to 0.53, the Fluorescence enhancement was 416 and the Emission/nm was 637 nm. For the same compound, the “The quantum yield of the free probe” value in series [2] is below 0.001.

For `CN(CCOC(=O)NCCOCCOCCCCCCCl)c1ccc2c(c1)C(C)(C)c1cc(/C=C(/C#N)C(=O)OC(C)(C)C)ccc1-2` [Probe 51], the ratio in series [1] was determined as 359. In addition, in the series with HaloTag protein tag, the “The quantum yield after binding to Halo-tag” value is 0.48, the Fluorescence enhancement amounted to 392 and the Emission/nm amounted to 625 nm. Moreover, in series [2], the “The quantum yield of the free probe” value is below 0.001.

Turning to `COCCNC(=S)/C(C#N)=C/c1cc2c(s1)-c1sc(N(C)CCOC(=O)NCCOCCOCCCCCCCl)cc1C2(C)C` [Probe 52], the ratio in series [1] is on record as 270. Besides, in the series with HaloTag protein tag, the “The quantum yield after binding to Halo-tag” value was 0.47, the Fluorescence enhancement is recorded as 435 and the Emission/nm stood at 670 nm. In addition, in series [2], the “The quantum yield of the free probe” value is recorded as below 0.001.

Regarding `COCCNC(=S)/C(C#N)=C/c1cc2c(s1)-c1sc(N(C)CCOC(=O)NCCOCCOCCCCCCCl)cc1[Si]2(C)C` [Probe 54], the ratio in series [1] is on record as 391. Also, in the series with HaloTag protein tag, the “The quantum yield after binding to Halo-tag” value was 0.41, the Fluorescence enhancement is on record as 498 and the Emission/nm came out at 710 nm. For the same compound, in series [2], the “The quantum yield of the free probe” value is reported as below 0.001.

These data come from patent publication US12492337B2, “Fluorescent probe, preparation method therefor and use thereof” (FLUORESCENCE DIAGNOSIS (SHANGHAI) BIOTECH COMPANY, priority 2017, dated 2025).
